Experiments:
Src = Src (Homo sapiens, UniProt P12931); assay: Src kinase activity assay; format: biochemical; details: under the test conditions employed; read-out: IC50 toward kinase Src
c-Raf-1 = c-Raf-1 (Homo sapiens, UniProt P04049); assay: c-Raf-1 kinase activity assay; format: biochemical; details: under the test conditions employed; read-out: IC50 toward kinase c-Raf-1
Kit = biological target: T1, Kit (Homo sapiens, UniProt P10721); assay: c-kit biochemical assay (AlphaScreen or 33P-ATP); details: under the test conditions employed; read-out: IC50 toward kinase Kit
T1 construct: P1332.N6 BI PTP KIT M552-K948-X COD; made in house; host or cells: E. coli BL21(DE3)RIL, co-expressed with PTP1B
T1 sequence (P10721 552-948): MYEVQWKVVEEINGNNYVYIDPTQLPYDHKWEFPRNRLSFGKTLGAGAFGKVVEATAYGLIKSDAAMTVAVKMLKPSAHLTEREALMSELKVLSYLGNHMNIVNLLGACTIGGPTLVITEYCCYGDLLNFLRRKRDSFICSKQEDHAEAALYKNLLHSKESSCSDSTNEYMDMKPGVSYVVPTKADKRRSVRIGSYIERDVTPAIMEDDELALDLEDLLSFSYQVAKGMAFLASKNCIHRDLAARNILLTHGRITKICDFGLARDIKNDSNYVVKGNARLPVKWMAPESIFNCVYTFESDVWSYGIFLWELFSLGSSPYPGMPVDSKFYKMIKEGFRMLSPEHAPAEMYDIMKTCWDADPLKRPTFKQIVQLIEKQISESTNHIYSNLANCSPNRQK
Outline: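 Kinase activity read by AlphaScreen or 33P-ATP incorporation, with c-kit enzyme at 1 ng per sample. The enzyme was either commercial or a recombinant human kit construct made from a gene-synthesized coding sequence.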

B-Raf = B-Raf (Homo sapiens, UniProt P15056); assay: B-Raf kinase activity assay; format: biochemical; details: under the test conditions employed; read-out: IC50 toward kinase B-Raf
Sequence of B-Raf (P15056 whole entry): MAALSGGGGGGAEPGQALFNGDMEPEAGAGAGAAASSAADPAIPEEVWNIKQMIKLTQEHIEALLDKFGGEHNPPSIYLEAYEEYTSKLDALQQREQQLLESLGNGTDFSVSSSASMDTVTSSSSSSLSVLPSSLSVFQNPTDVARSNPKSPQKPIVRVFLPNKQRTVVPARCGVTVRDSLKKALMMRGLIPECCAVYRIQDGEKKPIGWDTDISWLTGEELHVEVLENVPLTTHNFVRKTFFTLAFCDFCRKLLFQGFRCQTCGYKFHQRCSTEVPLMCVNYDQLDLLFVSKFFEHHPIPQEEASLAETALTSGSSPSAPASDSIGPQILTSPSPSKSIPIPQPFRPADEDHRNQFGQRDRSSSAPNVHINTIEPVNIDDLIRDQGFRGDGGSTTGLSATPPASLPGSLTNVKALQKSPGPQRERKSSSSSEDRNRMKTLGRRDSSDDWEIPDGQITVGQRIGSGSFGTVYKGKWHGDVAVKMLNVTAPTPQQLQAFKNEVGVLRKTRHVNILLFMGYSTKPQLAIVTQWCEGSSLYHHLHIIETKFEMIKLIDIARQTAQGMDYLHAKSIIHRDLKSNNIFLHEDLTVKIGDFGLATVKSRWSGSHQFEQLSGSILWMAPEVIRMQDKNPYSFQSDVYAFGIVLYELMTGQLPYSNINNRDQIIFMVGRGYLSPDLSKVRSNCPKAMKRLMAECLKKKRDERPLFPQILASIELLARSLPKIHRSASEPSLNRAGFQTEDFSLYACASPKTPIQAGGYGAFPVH

Flt1 = Flt1 (Homo sapiens, UniProt P17948); assay: Flt1 kinase activity assay; format: biochemical; details: under the test conditions employed; read-out: IC50 toward kinase Flt1
Fms = biological target: T2, Fms (Homo sapiens, UniProt P07333); assay: Fms biochemical assay (AlphaScreen or 33P-ATP); details: under the test conditions employed; read-out: IC50 toward kinase Fms
T2 construct: purchased Upstate Biotech 14-551
T2 sequence (P07333 20-972): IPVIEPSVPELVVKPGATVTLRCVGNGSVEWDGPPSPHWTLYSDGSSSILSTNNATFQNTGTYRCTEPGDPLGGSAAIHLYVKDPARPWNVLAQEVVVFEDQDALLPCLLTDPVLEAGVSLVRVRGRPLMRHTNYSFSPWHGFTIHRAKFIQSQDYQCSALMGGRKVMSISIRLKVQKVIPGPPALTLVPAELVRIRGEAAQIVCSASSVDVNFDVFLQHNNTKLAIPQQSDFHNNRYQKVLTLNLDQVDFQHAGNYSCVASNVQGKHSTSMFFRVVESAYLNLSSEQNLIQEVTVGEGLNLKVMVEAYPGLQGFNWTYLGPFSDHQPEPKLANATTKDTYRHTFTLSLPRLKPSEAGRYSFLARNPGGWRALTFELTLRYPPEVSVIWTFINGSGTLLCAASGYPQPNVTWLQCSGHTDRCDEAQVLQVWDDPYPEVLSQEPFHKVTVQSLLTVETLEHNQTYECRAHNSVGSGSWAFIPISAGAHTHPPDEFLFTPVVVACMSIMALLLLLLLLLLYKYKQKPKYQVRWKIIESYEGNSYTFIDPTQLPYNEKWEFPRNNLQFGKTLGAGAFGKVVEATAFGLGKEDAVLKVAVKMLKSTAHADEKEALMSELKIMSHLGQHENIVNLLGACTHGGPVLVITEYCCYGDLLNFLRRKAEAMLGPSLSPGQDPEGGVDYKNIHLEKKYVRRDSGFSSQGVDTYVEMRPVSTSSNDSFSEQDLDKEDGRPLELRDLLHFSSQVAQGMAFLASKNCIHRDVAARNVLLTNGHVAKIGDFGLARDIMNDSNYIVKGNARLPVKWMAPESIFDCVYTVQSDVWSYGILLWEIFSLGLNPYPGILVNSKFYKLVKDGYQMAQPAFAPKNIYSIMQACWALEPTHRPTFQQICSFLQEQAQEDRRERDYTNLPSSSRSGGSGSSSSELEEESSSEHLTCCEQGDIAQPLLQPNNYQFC
From the text: Each sample was at 5% DMSO.

Fak = Fak (Homo sapiens, UniProt Q05397); assay: Fak kinase activity assay; format: biochemical; details: under the test conditions employed; read-out: IC50 toward kinase Fak
B-Raf V600E = B-Raf V600E (Homo sapiens, UniProt P15056, V600E); assay: B-Raf V600E kinase activity assay; format: biochemical; details: under the test conditions employed; read-out: IC50 toward kinase B-Raf V600E
Sequence of B-Raf V600E (P15056 whole entry V600E): as the sequence (P15056 whole entry) above, with V600E counted along it

FGFR = FGFR (Homo sapiens, UniProt P11362); assay: FGFR kinase activity assay; format: biochemical; details: under the test conditions employed; read-out: IC50 toward kinase FGFR
Sequence of FGFR (P11362 22-822): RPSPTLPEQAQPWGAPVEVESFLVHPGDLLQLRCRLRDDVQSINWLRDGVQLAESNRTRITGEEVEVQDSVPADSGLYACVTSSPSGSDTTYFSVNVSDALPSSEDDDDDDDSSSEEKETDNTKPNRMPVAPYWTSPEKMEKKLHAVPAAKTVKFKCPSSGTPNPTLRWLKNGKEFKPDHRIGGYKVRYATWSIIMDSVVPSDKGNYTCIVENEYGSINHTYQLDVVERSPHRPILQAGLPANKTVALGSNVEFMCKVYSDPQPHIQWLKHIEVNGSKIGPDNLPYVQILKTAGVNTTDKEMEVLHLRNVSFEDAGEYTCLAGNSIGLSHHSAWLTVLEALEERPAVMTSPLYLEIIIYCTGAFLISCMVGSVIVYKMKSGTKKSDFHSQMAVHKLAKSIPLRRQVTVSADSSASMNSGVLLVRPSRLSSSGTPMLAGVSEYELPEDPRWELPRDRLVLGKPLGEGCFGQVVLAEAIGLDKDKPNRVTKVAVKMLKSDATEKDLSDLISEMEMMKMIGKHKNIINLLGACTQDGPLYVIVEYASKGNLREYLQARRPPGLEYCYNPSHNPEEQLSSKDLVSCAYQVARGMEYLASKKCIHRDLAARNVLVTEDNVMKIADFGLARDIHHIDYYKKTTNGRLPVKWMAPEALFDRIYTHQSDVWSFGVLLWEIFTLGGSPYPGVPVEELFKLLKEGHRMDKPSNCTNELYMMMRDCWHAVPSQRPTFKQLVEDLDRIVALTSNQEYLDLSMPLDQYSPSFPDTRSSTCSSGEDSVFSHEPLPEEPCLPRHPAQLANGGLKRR

Jnk1 = Jnk1 (Homo sapiens, UniProt P45983); assay: Jnk1 kinase activity assay; format: biochemical; details: under the test conditions employed; read-out: IC50 toward kinase Jnk1
Kdr = Kdr (Homo sapiens, UniProt P35968); assay: Kdr kinase activity assay; format: biochemical; details: under the test conditions employed; read-out: IC50 toward kinase Kdr
TrkA = biological target: T3, TrkA (Homo sapiens, UniProt P04629); assay: TrkA biochemical assay (AlphaScreen); details: under the test conditions employed; read-out: IC50 toward kinase TrkA
T3 construct: purchased Upstate Biotech 14-571
T3 sequence (P04629 33-796): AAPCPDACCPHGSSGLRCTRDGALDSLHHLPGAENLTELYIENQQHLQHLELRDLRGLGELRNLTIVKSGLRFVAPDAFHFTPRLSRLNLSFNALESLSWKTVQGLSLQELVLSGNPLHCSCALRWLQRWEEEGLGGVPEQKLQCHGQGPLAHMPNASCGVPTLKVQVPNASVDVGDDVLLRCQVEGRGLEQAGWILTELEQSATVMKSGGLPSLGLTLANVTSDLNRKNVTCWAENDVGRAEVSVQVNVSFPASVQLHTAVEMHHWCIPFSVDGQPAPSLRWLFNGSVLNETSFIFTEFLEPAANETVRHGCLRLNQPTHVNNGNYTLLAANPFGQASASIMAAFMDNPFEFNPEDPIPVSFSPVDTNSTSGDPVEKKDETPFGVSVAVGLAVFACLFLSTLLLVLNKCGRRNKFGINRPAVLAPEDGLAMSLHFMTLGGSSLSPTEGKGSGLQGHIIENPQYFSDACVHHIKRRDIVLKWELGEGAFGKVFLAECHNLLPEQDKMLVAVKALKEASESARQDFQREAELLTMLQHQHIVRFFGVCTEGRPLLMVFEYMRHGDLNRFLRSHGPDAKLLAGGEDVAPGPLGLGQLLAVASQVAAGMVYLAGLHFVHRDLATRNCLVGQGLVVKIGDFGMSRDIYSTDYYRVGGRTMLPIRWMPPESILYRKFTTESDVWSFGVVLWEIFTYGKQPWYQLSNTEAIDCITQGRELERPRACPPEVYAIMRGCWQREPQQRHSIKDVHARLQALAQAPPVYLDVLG
Method: Compounds tested were dissolved in DMSO (1 μL) and added to a white 384-well plate (Costar #3705). […] Each sample was at 5% DMSO. The plate was then incubated for 40 minutes at room temperature.

HGK = HGK (Homo sapiens, UniProt O95819); assay: HGK (MAP4K4) biochemical assay (AlphaScreen); details: under the test conditions employed; read-out: IC50 toward kinase HGK
Outline: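 AlphaScreen kinase assay with 0.5 ng MAP4K4 per sample and 10 nM biotin-ERM substrate, reacted 40 min at room temperature. Stopped with EDTA buffer containing phospho-ERM antibody (1:1000) plus donor and protein A acceptor beads (1 μg/ml final); signal tracks substrate phosphorylation.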

Btk = Btk (Homo sapiens, UniProt Q06187); assay: Btk kinase activity assay; format: biochemical; details: under the test conditions employed; read-out: IC50 toward kinase Btk
B-Raf V600E/T529I = B-Raf V600E/T529I (Homo sapiens, UniProt P15056, T529I/V600E); assay: B-Raf V600E/T529I kinase activity assay; format: biochemical; details: under the test conditions employed; read-out: IC50 toward kinase B-Raf V600E/T529I
Sequence of B-Raf V600E/T529I (P15056 whole entry T529I/V600E): as the sequence (P15056 whole entry) above, with T529I, V600E counted along it

Met = Met (Homo sapiens, UniProt P08581); assay: Met kinase activity assay; format: biochemical; details: under the test conditions employed; read-out: IC50 toward kinase Met

Measured: IC50

Sequence of c-Raf-1 (P04049 whole entry): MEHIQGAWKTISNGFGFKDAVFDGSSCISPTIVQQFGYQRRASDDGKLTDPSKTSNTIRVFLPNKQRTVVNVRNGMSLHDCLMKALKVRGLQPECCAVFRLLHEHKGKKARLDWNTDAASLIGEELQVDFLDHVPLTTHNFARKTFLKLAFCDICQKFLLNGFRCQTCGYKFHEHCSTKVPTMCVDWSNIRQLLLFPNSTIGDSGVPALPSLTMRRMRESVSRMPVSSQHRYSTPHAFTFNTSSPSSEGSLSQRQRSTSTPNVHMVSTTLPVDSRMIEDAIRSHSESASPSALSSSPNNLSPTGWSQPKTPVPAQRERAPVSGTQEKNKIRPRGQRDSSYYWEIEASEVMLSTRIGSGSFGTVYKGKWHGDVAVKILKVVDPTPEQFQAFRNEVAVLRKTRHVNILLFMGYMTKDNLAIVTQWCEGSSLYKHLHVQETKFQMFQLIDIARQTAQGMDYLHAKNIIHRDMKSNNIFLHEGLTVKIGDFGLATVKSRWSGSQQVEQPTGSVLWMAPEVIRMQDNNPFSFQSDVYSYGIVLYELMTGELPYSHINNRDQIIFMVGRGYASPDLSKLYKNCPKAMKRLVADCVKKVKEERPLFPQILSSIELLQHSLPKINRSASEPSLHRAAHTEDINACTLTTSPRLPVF
Sequence of Src (P12931 whole entry): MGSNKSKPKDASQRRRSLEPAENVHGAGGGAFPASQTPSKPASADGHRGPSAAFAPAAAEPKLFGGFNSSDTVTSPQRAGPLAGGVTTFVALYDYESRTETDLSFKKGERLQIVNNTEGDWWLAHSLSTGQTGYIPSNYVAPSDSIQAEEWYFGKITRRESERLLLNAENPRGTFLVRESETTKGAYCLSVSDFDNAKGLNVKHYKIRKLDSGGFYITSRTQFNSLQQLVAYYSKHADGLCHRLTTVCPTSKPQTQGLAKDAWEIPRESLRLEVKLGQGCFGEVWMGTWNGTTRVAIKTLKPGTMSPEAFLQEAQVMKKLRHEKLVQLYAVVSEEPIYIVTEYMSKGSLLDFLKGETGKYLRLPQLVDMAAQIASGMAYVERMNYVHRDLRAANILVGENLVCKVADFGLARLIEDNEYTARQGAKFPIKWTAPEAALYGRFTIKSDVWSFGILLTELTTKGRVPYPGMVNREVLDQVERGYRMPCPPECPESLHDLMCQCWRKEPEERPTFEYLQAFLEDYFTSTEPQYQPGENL

COc1cc(Cc2c[nH]c3ncccc23)ccc1OCc1ccc(Cl)cc1 [P-1247, 3-(4-(4-chlorobenzyloxy)-3-methoxybenzyl)-1H-pyrrolo[2,3-b]pyridine]
≤ 10 µM: Src | c-Raf-1 | Kit | B-Raf | Flt1 | Fms | Fak | B-Raf V600E

COCCOc1ccc(F)c(C(=O)c2c[nH]c3ncc(Br)cc23)c1F [P-1453, (5-Bromo-1H-pyrrolo[2,3-b]pyridin-3-yl)-[2,6-difluoro-3-(2-methoxy-ethoxy)-phenyl]-methanone]
≤ 10 µM: c-Raf-1 | Kit | B-Raf | Fms | Fak | B-Raf V600E | FGFR

Fc1ccc(OCc2ccccc2)c(F)c1Cc1c[nH]c2ncc(-c3cccnc3)cc12 [P-1455, 3-(3-Benzyloxy-2,6-difluoro-benzyl)-5-pyridin-3-yl-1H-pyrrolo[2,3-b]pyridine]
≤ 10 µM: c-Raf-1 | Kit | B-Raf | Fms | Fak | B-Raf V600E | FGFR

Fc1cc(Cc2c[nH]c3ncccc23)ccc1OCc1ccc(Cl)cc1 [P-1896, 3-[4-(4-Chloro-benzyloxy)-3-fluoro-benzyl]-1H-pyrrolo[2,3-b]pyridine]
≤ 10 µM: Jnk1

O=C(c1ccc(OCc2ccc(Cl)cc2)c(F)c1)c1c[nH]c2ncccc12 [P-1897, [4-(4-chloro-benzyloxy)-3-fluoro-phenyl]-(1H-pyrrolo[2,3-b]pyridin-3-yl)-methanone]
≤ 10 µM: Jnk1

Cn1cc(-c2cnc3[nH]cc(Cc4cc(F)c(OCc5nc6ccccc6[nH]5)cc4F)c3c2)cn1 [P-2108, 2-{2,5-Difluoro-4-[5-(1-methyl-1H-pyrazol-4-yl)-1H-pyrrolo[2,3-b]pyridin-3-ylmethyl]-phenoxymethyl}-1H-benzoimidazole]
≤ 10 µM: Src | Kit | Kdr | TrkA | Flt1 | Fms

Cn1cc(-c2cnc3[nH]cc(Cc4cc(F)c(OCc5nc6ccccc6[nH]5)cc4Cl)c3c2)cn1 [P-2109, 2-{5-Chloro-2-fluoro-4-[5-(1-methyl-1H-pyrazol-4-yl)-1H-pyrrolo[2,3-b]pyridin-3-ylmethyl]-phenoxymethyl}-1H-benzoimidazole]
≤ 10 µM: Src | Kit | Kdr | TrkA | Flt1 | Fms | HGK

Cn1cc(-c2cnc3[nH]cc(Cc4cc(Cl)c(OCc5nc6ccccc6[nH]5)cc4F)c3c2)cn1 [P-2117, 2-{2-Chloro-5-fluoro-4-[5-(1-methyl-1H-pyrazol-4-yl)-1H-pyrrolo[2,3-b]pyridin-3-ylmethyl]-phenoxymethyl}-1H-benzoimidazole]
≤ 10 µM: Src | Kit | Kdr | TrkA | Flt1 | Fms

Cn1cc(-c2cnc3[nH]cc(C(=O)c4c(F)ccc(OCC(F)(F)F)c4Cl)c3c2)cn1 [P-2145, [2-Chloro-6-fluoro-3-(2,2,2-trifluoro-ethoxy)-phenyl]-[5-(1-methyl-1H-pyrazol-4-yl)-1H-pyrrolo[2,3-b]pyridin-3-yl]-methanone]
≤ 10 µM: Src | Kit | Btk | B-Raf | Kdr | TrkA | Flt1 | Fms

Cn1cc(-c2cnc3[nH]cc(C(=O)c4c(Cl)ccc(OCC(F)(F)F)c4Cl)c3c2)cn1 [P-2151, [2,6-Dichloro-3-(2,2,2-trifluoro-ethoxy)-phenyl]-[5-(1-methyl-1H-pyrazol-4-yl)-1H-pyrrolo[2,3-b]pyridin-3-yl]-methanone]
≤ 10 µM: Src | B-Raf V600E/T529I | Kit | B-Raf | Kdr | Flt1 | Fms

Cn1cc(-c2cnc3[nH]cc(Cc4c(Cl)ccc(OCC(F)(F)F)c4Cl)c3c2)cn1 [P-2152, 3-[2,6-Dichloro-3-(2,2,2-trifluoro-ethoxy)-benzyl]-5-(1-methyl-1H-pyrazol-4-yl)-1H-pyrrolo[2,3-b]pyridine]
≤ 10 µM: B-Raf V600E/T529I | Kdr | Fms

COc1cnc2[nH]cc(C(=O)c3c(Cl)ccc(OCC(F)(F)F)c3Cl)c2c1 [P-2154, [2,6-Dichloro-3-(2,2,2-trifluoro-ethoxy)-phenyl]-(5-methoxy-1H-pyrrolo[2,3-b]pyridin-3-yl)-methanone]
≤ 10 µM: B-Raf V600E/T529I | Kdr | Flt1 | Fms

Fc1cc(Cc2c[nH]c3ncc(Cl)cc23)c(Cl)cc1OCc1cccnc1 [P-2156, 5-Chloro-3-[2-chloro-5-fluoro-4-(pyridin-3-ylmethoxy)-benzyl]-1H-pyrrolo[2,3-b]pyridine]
≤ 10 µM: B-Raf V600E/T529I | Kit | Kdr | Fms

COCCOc1ccc(F)c(Cc2c[nH]c3ncc(Cl)cc23)c1Cl [P-2157, 5-Chloro-3-[2-chloro-6-fluoro-3-(2-methoxy-ethoxy)-benzyl]-1H-pyrrolo[2,3-b]pyridine]
≤ 10 µM: Kit | Kdr | Met | Fms | FGFR

COc1cc(Cc2c[nH]c3ncccc23)c(Cl)cc1OCc1ccc(Cl)cc1F [P-2166, 3-[2-chloro-4-(4-chloro-2-fluoro-benzyloxy)-5-methoxy-benzyl]-1H-pyrrolo[2,3-b]pyridine]
≤ 10 µM: B-Raf V600E/T529I | Kdr | Fms

Source: US7872018B2, “Compounds and methods for kinase modulation, and indications therefor” (Plexxikon, Inc., priority 2006, dated 2011)
